Experimental data published in PMC6978363, “Chaperone mediated detection of small molecule target binding in cells” (Nature Communications, 2020).

Columns and labels:
Assay in all cases: biochemical
Conditions in all cases: read-out: % Inhibition (at 10mM)
Ros = biological target: T1, Ros (Homo sapiens, UniProt P08922)
T1 construct: gene ROS1

PRKAA2_B2_G3 = biological target: T2, PRKAA2_B2_G3 (Homo sapiens, UniProt P54646)
T2 construct: gene PRKAA2

JAK2 = JAK2 (Homo sapiens, UniProt O60674)
JAK3 = JAK3 (Homo sapiens, UniProt P52333)
GRK2 = GRK2 (Homo sapiens, UniProt P25098)
eEF-2K = biological target: T3, eEF-2K (Homo sapiens, UniProt O00418)
T3 construct: gene EEF2K

CamK1_gamma = biological target: T4, CamK1_gamma (Homo sapiens, UniProt Q96NX5)
T4 construct: gene CAMK1G

MARK3 = MARK3 (Homo sapiens, UniProt P27448)
Ron = biological target: T5, Ron (Homo sapiens, UniProt Q04912)
T5 construct: gene MST1R
T5 sequence (Q04912 whole entry): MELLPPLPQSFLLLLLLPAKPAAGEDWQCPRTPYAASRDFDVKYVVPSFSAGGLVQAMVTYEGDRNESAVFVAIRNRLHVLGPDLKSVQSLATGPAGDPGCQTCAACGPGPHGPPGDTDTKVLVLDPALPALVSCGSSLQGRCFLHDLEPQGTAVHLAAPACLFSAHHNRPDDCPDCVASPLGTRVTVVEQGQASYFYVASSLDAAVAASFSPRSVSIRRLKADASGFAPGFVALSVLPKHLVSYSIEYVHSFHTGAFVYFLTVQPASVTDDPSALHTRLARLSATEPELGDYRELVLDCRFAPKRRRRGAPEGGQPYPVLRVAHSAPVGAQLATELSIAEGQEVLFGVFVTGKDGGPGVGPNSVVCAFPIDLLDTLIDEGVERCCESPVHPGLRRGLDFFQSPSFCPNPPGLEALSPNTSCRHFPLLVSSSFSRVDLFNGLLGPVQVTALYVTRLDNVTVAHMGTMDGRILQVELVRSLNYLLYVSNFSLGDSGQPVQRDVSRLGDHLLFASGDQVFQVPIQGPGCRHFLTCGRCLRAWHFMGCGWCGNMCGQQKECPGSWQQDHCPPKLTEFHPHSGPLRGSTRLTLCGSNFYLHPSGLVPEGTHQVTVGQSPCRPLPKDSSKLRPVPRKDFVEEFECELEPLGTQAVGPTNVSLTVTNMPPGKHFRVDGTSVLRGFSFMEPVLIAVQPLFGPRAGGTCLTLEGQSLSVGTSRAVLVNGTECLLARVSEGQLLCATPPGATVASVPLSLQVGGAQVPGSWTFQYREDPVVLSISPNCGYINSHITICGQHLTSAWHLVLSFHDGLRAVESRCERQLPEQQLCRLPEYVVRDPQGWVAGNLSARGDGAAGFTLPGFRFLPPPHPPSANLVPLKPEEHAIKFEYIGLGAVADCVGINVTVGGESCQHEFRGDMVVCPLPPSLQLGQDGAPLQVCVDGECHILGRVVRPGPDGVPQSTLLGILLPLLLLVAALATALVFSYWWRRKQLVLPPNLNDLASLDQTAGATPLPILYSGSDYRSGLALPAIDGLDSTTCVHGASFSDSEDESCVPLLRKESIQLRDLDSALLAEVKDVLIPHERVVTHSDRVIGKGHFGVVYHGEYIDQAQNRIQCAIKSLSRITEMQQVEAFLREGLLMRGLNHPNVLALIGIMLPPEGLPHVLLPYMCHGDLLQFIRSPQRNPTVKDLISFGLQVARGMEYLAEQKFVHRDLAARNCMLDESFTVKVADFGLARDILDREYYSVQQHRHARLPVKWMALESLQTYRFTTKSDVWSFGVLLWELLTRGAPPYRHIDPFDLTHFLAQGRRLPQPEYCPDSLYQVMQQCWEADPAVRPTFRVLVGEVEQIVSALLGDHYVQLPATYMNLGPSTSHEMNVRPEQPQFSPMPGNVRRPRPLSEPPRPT

Ret = Ret (Homo sapiens, UniProt P07949)
PKD3 = biological target: T6, PKD3 (Homo sapiens, UniProt O94806)
T6 construct: gene PRKD3

Kit = Kit (Homo sapiens, UniProt P10721)
TrkC = biological target: T7, TrkC (Homo sapiens, UniProt Q16288)
T7 construct: gene NTRK3

CDK5/p35 = biological target: T8, CDK5/p35 (Homo sapiens, UniProt Q00535)
T8 construct: p35

Syk = Syk (Homo sapiens, UniProt P43405)
EphB3 = EphB3 (Homo sapiens, UniProt P54753)
PCTK3 = biological target: T9, PCTK3 (Homo sapiens, UniProt Q07002)
T9 construct: gene CDK18
T9 sequence (Q07002 whole entry): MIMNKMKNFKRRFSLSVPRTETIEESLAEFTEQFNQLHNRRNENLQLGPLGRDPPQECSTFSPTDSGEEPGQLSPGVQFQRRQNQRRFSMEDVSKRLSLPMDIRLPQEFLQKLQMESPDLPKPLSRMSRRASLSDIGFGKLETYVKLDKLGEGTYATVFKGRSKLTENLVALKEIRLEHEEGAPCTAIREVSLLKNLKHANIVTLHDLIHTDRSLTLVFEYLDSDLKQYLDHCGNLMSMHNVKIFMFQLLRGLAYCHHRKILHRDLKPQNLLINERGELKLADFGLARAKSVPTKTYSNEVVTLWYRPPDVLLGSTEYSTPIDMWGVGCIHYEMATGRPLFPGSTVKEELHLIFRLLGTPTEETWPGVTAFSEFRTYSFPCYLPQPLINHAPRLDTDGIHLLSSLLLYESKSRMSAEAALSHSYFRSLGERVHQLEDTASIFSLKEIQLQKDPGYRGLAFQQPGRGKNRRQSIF

NEK1 = NEK1 (Homo sapiens, UniProt Q96PY6)
Sequence of NEK1 (Q96PY6 whole entry): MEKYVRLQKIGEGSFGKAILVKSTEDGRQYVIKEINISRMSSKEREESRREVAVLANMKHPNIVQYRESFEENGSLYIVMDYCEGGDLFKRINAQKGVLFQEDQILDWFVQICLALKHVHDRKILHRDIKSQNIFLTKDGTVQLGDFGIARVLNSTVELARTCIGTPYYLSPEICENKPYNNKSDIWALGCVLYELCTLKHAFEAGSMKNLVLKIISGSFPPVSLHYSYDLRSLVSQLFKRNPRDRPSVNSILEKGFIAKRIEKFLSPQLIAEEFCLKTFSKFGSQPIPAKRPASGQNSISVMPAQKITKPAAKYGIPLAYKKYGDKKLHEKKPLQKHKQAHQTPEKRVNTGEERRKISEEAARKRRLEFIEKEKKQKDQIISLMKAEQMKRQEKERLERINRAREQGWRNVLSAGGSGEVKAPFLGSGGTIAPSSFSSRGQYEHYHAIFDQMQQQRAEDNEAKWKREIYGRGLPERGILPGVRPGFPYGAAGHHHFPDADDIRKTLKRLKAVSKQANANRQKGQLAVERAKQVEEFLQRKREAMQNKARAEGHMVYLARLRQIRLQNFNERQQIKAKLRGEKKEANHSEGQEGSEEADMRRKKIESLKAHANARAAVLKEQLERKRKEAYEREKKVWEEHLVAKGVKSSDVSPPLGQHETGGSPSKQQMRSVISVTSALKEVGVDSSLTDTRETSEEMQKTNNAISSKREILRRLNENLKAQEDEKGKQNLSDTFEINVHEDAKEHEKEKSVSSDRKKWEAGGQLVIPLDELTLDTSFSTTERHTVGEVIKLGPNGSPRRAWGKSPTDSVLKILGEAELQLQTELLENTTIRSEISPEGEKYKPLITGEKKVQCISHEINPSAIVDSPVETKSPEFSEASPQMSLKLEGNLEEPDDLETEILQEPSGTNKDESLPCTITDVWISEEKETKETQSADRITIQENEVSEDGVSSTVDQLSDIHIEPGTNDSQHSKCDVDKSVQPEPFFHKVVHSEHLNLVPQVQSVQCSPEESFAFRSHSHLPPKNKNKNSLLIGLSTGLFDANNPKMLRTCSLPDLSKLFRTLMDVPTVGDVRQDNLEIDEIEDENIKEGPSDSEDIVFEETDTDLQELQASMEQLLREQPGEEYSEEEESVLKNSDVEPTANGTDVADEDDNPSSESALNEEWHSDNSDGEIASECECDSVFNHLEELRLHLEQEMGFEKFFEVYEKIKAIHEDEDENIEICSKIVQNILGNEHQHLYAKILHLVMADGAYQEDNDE

p70S6K = biological target: T10, p70S6K (Homo sapiens, UniProt P23443)
T10 construct: gene RPS6KB1

PKD1 = biological target: T11, PKD1 (Homo sapiens, UniProt Q15139)
T11 construct: gene PRKD1

DYRK4 = DYRK4 (Homo sapiens, UniProt Q9NR20)
HIPK2 = HIPK2 (Homo sapiens, UniProt Q9H2X6)
HIPK1 = HIPK1 (Homo sapiens, UniProt Q86Z02)
Sequence of HIPK1 (Q86Z02 whole entry): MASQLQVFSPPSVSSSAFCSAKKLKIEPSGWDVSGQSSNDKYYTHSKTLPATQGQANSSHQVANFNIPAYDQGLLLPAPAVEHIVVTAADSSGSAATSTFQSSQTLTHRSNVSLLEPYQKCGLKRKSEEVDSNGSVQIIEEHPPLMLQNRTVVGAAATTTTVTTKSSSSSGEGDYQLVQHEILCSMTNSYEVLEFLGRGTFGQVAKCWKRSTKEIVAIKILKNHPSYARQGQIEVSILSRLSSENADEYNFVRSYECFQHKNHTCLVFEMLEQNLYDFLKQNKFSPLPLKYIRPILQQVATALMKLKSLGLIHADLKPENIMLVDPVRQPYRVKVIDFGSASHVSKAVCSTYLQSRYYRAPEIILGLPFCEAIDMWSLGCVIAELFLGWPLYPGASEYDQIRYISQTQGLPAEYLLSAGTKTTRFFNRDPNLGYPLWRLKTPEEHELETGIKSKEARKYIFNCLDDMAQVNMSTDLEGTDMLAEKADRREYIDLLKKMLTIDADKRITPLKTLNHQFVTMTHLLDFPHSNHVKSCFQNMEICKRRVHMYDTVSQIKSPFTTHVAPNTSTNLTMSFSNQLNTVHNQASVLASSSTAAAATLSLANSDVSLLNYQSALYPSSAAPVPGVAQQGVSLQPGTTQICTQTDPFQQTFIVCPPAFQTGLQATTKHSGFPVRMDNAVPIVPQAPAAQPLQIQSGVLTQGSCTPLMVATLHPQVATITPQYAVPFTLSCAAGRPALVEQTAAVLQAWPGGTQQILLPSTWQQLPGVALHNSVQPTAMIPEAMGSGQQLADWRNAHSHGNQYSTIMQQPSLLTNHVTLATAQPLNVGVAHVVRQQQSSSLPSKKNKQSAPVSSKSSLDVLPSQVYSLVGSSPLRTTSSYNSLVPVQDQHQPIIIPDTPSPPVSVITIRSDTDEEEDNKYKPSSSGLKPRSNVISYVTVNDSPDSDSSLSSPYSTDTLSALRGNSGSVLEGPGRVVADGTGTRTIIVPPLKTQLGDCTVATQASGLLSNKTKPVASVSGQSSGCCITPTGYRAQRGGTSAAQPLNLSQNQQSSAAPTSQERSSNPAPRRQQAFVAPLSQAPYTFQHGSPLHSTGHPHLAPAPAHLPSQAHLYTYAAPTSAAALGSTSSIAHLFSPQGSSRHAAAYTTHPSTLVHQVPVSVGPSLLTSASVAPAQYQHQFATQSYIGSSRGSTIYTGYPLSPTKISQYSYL

ZAP-70 = biological target: T12, ZAP-70 (Homo sapiens, UniProt P43403)
T12 construct: gene ZAP70

InsR = InsR (Homo sapiens, UniProt P06213)
PKC_delta = biological target: T13, PKC_delta (Homo sapiens, UniProt Q05655)
T13 construct: gene PRKCD

Frk = Frk (Homo sapiens, UniProt P42685)
AKT2 = AKT2 (Homo sapiens, UniProt P31751)
MARK2 = MARK2 (Homo sapiens, UniProt Q7KZI7)
KSR2 = KSR2 (Homo sapiens, UniProt Q6VAB6)
CK1_epsilon1 = biological target: T14, CK1_epsilon1 (Homo sapiens, UniProt P49674)
T14 construct: gene CSNK1E; epsilon 1
T14 sequence (P49674 whole entry): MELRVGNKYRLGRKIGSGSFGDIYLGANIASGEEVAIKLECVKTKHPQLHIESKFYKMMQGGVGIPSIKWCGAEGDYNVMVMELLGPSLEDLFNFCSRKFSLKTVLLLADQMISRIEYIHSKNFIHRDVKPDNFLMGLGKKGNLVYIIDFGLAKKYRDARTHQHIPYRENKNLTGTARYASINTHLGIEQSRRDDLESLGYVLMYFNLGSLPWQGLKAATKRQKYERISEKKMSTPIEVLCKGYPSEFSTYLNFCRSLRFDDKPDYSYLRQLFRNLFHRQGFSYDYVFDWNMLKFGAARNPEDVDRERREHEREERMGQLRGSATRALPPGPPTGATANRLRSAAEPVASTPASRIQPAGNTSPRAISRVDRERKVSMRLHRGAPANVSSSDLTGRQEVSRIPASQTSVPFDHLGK

PhK_gamma2 = biological target: T15, PhK_gamma2 (Homo sapiens, UniProt P15735)
T15 construct: gene PHKG2

p38_gamma = biological target: T16, p38_gamma (Homo sapiens, UniProt P53778)
T16 construct: gene MAPK12

PASK = PASK (Homo sapiens, UniProt Q96RG2)
SIK2 = SIK2 (Homo sapiens, UniProt Q9H0K1)
PLK2 = PLK2 (Homo sapiens, UniProt Q9NYY3)
MAP4K4 = MAP4K4 (Homo sapiens, UniProt O95819)
TXK = TXK (Homo sapiens, UniProt P42681)

**Q.** Which results are given for `CC(C)(O)CC(=O)NCCn1ccc2ncnc(Nc3ccc(Oc4cccc(C(F)(F)F)c4)c(Cl)c3)c21` [TAK-285]?
**A.** inhibition (Ros): 7.5%; inhibition (PRKAA2_B2_G3): 9.5%; inhibition (JAK2): 2%; inhibition (JAK3): 2%; inhibition (GRK2): 0%; inhibition (eEF-2K): 7%; inhibition (CamK1_gamma): 10%; inhibition (MARK3): 6.5%; inhibition (Ron): 28%; inhibition (Ret): 15.5%; inhibition (PKD3): 31.5%; inhibition (Kit): -1.5%; inhibition (TrkC): 6%; inhibition (CDK5/p35): 3.5%; inhibition (Syk): 3.5%; inhibition (EphB3): 6.5%; inhibition (PCTK3): 6%; inhibition (NEK1): 1.5%; inhibition (p70S6K): 7.5%; inhibition (PKD1): 76%; inhibition (DYRK4): 1.5%; inhibition (HIPK2): 6%; inhibition (HIPK1): 4.5%; inhibition (ZAP-70): 2%; inhibition (InsR): 9.5%; inhibition (PKC_delta): 15.5%; inhibition (Frk): 4.5%; inhibition (AKT2): 5.5%; inhibition (MARK2): 5.5%; inhibition (KSR2): 0%; inhibition (CK1_epsilon1): 10.5%; inhibition (PhK_gamma2): -0.5%; inhibition (p38_gamma): 12.5%; inhibition (PASK): 2.5%; inhibition (SIK2): 9.5%; inhibition (PLK2): 2.5%; inhibition (MAP4K4): -0.5%; inhibition (TXK): 15%
